Experimental data reported in publication PMC10657792, “Downstream Allosteric Modulation of NMDA Receptors by 3-Benzazepine Derivatives” (Molecular Neurobiology, 2023).
Where “and” joins values, the source holds several entries; their conditions need not be identical. Equal values may be shown once.

Experiments:
Experiment in all cases: TEVC recording in X. laevis oocytes, GluN2B mutant screening
Format in all cases: cell-based
GluN1a wt/ GluN2B F176A = GluN1a wt/ GluN2B F176A (Rattus norvegicus, UniProt P35439+Q00960, F176A); conditions: fitted curve
Procedure: (§1) Single point mutations were incorporated into template DNA (GluN1-1b wt/ pSGEM and GluN2B wt/ pSGEM) by using the QuikChange II XL site-directed mutagenesis kit (Agilent Technologies, Germany). Mutagenesis primers were designed using the QuikChange Primer Design Program (Agilent) and provided by Microsynth (Microsynth AG, Balgach, Switzerland). For mutation of the desired amino acid in the gene, PCR amplification was performed with the respective mutagenesis primers (Eppendorf MasterCycler Gradient, Eppendorf Hamburg, Germany). Mutations were verified by automated DNA sequencing. Constructs were linearized with PacI (GluN1) or NheI (GluN2B). cRNA was prepared byin vitrotranscription using the mMessage mMachine T7 kit (Life Technologies, Darmstadt, Germany).
(§2) The NMDAR was expressed in stage V and VI oocytes originated from X. laevis. Oocytes were provided by Ecocyte Bioscience (Dortmund, Germany), and equimolar amounts of wild-type and mutated GluN1 and GluN2B cRNA were injected (0.8 ng each). The oocytes were incubated in Barth’s solution, containing (mmol l^−1): 88 NaCl, 1 KCl, 0.4 CaCl2, 0.33 Ca(NO3)2, 0.6 MgSO4, 5 TRIS–HCl, 2.4 NaHCO3, supplemented with 80 mg l^−1 theophylline, 63 mg l^−1 benzylpenicillin, 40 mg l^−1 streptomycin, and 100 mg l^−1 gentamycin and maintained at 18 °C until usage. After injection, the oocytes were incubated for 5 days at 18 °C. Subsequently, the activity of the expressed NMDARs in the oocytes was recorded by two-electrode voltage clamp (TEVC).
(§3) The compounds were retrieved as 10 mM stock solutions in DMSO and were subsequently diluted with agonist solution and adjusted to 0.1% DMSO concentration. Inhibition of each compound was measured via TEVC in X. laevis oocytes at room temperature using a Turbo Tec 10CX amplifier (NPI electronic, Tamm, Germany), NI USB 6221 DA/AD Interface (National Instruments, Austin, USA), and GePulse Software (Dr. Michael Pusch, Genova, Italy). Ba^2+-Ringer, consisting of 10 mM HEPES, 90 mM NaCl, 1 mM KCl, and 1.5 mM BaCl2, adjusted to pH 7.4, was used for TEVC measurements. Agonist solution containing 10 µM glycine and 10 µM (S)-glutamate was prepared in Ba^2+-Ringer, and the measurements were performed at a holding potential of − 70 mV, using electrodes with a glass capillary filled with 3 M KCl and a resistance between 0.5 and 1.5 MΩ. The compounds were tested by applying ascending concentrations, ranging from 1 to 30,000 nM, in at least six oocytes. Example traces for all recorded conditions can be found in Supplementary Figs. S2–S9.
(§4) TEVC data were analyzed using Ana (Dr. Michael Pusch, Genova, Italy), and statistics were performed using OriginPro 2020 (OriginLab Corporation, Northampton, USA). The inhibitory effect of each compound is calculated using the following equation: inhibition=1-Ic-Ih/Ia-Ih where Ih describes the current in the absence of agonists; Ia represents the steady-state current in the presence of the agonists; and Ic is defined as the steady-state after binding of agonist and compound. All dose response curves are fitted to the following logistic equation: y=A1-A2/1+x/x0^p+A2 where A1 describes the minimal inhibition of a compound and was set to 0; A2 represents the maximal inhibition of a compound; p is the slope of the curve; x0 is defined as the concentration at half-maximal inhibition; and x is the tested concentration. Data were statistically analyzed by one-way ANOVA and Tukey post-hoc mean comparison test in OriginPro 2020 (OriginLab Corporation, Northampton, USA). p values are indicated by * for p < 0.05, ** for p < 0.01, and *** for p < 0.001.

GluN1a wt/ GluN2B F194A = GluN1a wt/ GluN2B F194A (Rattus norvegicus, UniProt P35439+Q00960, F194A); conditions: fitted curve
Procedure: as §1, §2, §3, §4

GluN1b wt/ GluN2B E236A = GluN1b wt/ GluN2B E236A (Rattus norvegicus, UniProt P35439+Q00960, E236A)
Chain of GluN1b wt/ GluN2B E236A (Q00960 27-1482 E236A, other chains not shown): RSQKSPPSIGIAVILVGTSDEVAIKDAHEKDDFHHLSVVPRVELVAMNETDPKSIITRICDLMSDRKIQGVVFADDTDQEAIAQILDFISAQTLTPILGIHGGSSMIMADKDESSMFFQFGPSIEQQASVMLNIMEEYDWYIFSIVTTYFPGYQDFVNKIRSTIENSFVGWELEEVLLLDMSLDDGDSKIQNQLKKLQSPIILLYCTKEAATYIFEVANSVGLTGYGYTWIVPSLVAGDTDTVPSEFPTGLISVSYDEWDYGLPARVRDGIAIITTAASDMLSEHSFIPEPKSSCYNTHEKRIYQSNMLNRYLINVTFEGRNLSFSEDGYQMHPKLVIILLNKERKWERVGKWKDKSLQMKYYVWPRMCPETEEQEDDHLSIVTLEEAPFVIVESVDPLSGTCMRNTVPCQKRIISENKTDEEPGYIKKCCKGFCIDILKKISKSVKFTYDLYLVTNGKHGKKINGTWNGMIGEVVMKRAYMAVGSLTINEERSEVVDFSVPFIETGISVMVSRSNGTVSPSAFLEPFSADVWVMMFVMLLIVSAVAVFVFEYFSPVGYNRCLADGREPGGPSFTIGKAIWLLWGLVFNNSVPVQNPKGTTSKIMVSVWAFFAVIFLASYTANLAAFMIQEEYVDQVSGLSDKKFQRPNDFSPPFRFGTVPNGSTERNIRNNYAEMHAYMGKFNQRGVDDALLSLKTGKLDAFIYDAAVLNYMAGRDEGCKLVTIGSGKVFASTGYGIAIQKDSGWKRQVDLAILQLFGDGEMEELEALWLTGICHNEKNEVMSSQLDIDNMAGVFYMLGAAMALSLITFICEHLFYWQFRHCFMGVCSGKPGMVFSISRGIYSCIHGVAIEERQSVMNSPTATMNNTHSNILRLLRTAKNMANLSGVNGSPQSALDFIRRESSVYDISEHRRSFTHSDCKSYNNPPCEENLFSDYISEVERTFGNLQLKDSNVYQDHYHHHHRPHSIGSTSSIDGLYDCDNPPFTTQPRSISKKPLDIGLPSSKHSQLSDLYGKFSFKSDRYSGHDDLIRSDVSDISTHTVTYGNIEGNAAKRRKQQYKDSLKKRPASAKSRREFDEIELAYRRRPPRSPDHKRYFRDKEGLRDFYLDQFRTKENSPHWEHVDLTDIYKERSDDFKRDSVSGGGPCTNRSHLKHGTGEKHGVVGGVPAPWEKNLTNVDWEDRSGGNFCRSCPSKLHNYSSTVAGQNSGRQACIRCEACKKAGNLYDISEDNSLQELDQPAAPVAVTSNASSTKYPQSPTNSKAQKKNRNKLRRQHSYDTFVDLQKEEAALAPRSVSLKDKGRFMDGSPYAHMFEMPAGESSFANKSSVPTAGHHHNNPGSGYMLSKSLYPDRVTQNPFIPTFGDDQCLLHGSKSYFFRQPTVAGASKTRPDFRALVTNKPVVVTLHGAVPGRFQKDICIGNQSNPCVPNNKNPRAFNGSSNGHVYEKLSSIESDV
Procedure: as §1, §2, §3, §4

GluN1b wt/ GluN2B F114A = GluN1b wt/ GluN2B F114A (Rattus norvegicus, UniProt P35439+Q00960, F114A); conditions: fitted curve
Procedure: as §1, §2, §3, §4

GluN1b wt/ GluN2B F194A = GluN1b wt/ GluN2B F194A (Rattus norvegicus, UniProt P35439+Q00960, F194A)
Procedure: as §1, §2, §3, §4

GluN1b wt/ GluN2B N192A = GluN1b wt/ GluN2B N192A (Rattus norvegicus, UniProt P35439+Q00960, N192A)
Procedure: as §1, §2, §3, §4

[1] = biological target: GluN1b wt/ GluN2B N192A/F194A (Rattus norvegicus, UniProt P35439+Q00960, F194A/N192A)
Chain of GluN1b wt/ GluN2B N192A/F194A (Q00960 27-1482 N192A/F194A, other chains not shown): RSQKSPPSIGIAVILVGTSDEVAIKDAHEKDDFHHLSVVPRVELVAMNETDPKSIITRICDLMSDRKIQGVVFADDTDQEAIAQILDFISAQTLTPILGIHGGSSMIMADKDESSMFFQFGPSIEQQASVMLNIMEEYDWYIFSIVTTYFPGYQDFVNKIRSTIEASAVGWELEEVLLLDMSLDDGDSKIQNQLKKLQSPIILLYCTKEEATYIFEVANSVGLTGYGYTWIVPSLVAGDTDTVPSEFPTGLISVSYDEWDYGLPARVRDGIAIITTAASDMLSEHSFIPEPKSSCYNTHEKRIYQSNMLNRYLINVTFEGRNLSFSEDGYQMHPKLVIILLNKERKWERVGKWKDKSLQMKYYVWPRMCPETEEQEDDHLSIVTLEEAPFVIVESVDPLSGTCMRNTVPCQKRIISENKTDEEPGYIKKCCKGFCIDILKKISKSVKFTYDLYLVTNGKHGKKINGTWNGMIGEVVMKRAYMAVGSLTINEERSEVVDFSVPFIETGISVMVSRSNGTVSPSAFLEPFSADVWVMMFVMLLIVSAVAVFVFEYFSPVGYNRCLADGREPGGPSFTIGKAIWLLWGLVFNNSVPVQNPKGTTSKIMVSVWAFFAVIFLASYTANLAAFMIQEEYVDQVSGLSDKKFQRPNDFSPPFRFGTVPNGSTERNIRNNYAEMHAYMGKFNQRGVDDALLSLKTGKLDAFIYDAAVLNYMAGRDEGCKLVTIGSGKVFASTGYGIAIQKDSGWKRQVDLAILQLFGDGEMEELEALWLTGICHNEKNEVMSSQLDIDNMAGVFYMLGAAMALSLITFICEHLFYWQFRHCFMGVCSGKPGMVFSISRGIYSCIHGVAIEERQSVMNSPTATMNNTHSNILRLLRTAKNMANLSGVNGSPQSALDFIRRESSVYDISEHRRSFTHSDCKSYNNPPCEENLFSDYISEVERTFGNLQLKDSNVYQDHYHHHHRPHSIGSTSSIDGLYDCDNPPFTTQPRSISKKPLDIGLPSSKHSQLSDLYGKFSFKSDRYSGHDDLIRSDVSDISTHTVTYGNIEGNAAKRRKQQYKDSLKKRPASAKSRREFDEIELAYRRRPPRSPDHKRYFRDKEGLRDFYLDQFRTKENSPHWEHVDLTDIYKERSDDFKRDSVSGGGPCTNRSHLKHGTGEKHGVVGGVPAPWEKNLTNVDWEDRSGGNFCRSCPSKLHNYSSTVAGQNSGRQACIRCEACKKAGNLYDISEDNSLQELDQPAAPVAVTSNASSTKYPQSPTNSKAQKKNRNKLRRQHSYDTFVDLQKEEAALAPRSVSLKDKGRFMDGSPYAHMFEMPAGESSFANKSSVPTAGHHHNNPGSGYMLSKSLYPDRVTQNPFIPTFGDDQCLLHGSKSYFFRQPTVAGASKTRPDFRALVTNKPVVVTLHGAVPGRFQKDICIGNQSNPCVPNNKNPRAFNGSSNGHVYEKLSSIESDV
Procedure: as §1, §2, §3, §4

GluN1b wt/ GluN2B Q110A = GluN1b wt/ GluN2B Q110A (Rattus norvegicus, UniProt P35439+Q00960, Q110A)
Chain of GluN1b wt/ GluN2B Q110A (Q00960 27-1482 Q110A, other chains not shown): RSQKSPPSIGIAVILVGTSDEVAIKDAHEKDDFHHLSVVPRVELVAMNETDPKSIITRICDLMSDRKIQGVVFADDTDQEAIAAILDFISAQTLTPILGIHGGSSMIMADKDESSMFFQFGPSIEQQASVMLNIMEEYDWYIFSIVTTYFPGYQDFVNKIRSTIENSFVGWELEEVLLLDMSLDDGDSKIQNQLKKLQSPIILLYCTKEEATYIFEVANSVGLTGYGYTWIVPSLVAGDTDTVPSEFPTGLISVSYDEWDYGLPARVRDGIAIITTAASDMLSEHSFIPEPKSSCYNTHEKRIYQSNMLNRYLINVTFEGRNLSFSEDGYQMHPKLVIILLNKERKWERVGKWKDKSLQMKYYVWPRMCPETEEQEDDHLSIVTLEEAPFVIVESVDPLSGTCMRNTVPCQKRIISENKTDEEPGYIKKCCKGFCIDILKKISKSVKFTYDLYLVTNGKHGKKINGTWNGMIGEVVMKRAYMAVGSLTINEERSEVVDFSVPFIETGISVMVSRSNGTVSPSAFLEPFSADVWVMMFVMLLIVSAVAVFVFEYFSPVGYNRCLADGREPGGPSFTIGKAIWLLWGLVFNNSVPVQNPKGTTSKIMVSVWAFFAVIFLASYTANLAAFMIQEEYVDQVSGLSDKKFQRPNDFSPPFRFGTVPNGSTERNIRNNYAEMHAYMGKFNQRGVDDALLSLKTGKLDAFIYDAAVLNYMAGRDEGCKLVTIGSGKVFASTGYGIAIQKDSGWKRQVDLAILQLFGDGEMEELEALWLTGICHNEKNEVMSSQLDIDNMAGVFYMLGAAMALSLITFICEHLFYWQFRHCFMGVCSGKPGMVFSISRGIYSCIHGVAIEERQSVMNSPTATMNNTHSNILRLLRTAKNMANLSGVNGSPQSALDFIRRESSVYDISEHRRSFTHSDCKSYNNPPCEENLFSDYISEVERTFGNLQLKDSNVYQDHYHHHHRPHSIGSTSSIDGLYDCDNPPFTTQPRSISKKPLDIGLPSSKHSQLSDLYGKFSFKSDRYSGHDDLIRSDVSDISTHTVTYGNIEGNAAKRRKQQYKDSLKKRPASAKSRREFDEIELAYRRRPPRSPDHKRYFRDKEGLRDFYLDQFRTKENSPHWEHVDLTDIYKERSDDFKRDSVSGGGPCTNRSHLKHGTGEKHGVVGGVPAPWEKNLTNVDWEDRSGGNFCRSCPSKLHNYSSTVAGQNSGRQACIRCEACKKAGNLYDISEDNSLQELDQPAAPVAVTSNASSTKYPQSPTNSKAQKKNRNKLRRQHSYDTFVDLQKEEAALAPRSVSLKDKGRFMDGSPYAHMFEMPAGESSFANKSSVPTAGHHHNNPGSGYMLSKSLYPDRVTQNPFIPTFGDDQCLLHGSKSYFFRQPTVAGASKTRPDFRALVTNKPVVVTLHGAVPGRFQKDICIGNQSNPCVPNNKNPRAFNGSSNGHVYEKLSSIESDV
Procedure: as §1, §2, §3, §4

GluN1a wt/ GluN2B N192A = GluN1a wt/ GluN2B N192A (Rattus norvegicus, UniProt P35439+Q00960, N192A); conditions: for inhibition (%): GluN1-1a GluN2B N192A, single oocytes
[2] = agonists 10 µM glycine + 10 µM (S)-glutamate
[3] = agonists 10 µM glycine + 10 µM (S)-glutamate, fitted curve

Oc1ccc2c(c1)CCN(CCCCc1ccccc1F)C[C@@H]2O [(R)-OF-NB1]
Hill coefficient (GluN1a wt/ GluN2B F176A): 0.5
IC50 (GluN1a wt/ GluN2B F194A; [2]): 16.6 µM
Hill coefficient (GluN1a wt/ GluN2B F194A): 0.4
inhibition at 1 µM (GluN1b wt/ GluN2B E236A; GluN1-1b/E236A, compound concentration 1 μM, single oocytes): 39.5%
inhibition at 10 µM (GluN1b wt/ GluN2B E236A; GluN1-1b/E236A, compound concentration 10 μM, single oocytes): 51.9%
inhibition at 30 µM (GluN1b wt/ GluN2B E236A; GluN1-1b/E236A, compound concentration 30 μM, single oocytes): 61.6%
IC50 (GluN1b wt/ GluN2B E236A; [3]): 3.15 µM
Hill coefficient (GluN1b wt/ GluN2B E236A; fitted curve): 0.6
IC50 (GluN1b wt/ GluN2B F114A; [2]): 14.2 µM
Hill coefficient (GluN1b wt/ GluN2B F114A): 0.9
inhibition at 1 µM (GluN1b wt/ GluN2B F194A; GluN1-1b GluN2B F194A, compound concentration 1 μM, single oocytes): 39.3%
inhibition at 30 µM (GluN1b wt/ GluN2B F194A; GluN1-1b GluN2B F194A, compound concentration 30 μM, single oocytes): 51.8%
IC50 (GluN1b wt/ GluN2B F194A; [3]): 3.84 µM
Hill coefficient (GluN1b wt/ GluN2B F194A; fitted curve): 0.5
inhibition at 10 µM (GluN1b wt/ GluN2B N192A; GluN1-1b GluN2B N192A, compound concentration 10 μM, single oocytes): 69.9%
inhibition at 30 µM (GluN1b wt/ GluN2B N192A; GluN1-1b GluN2B N192A, compound concentration 30 μM, single oocytes): 76.3%
IC50 (GluN1b wt/ GluN2B N192A; [3]): 0.567 µM
Hill coefficient (GluN1b wt/ GluN2B N192A; fitted curve): 1.3
inhibition at 1 µM ([1]; GluN1-1b GluN2B N192A/F194A, compound concentration 1 μM, single oocytes): 23.8%
inhibition at 10 µM ([1]; GluN1-1b GluN2B N192A/F194A, compound concentration 10 μM, single oocytes): 35.6%
inhibition at 30 µM ([1]; GluN1-1b GluN2B N192A/F194A, compound concentration 30 μM, single oocytes): 37%
IC50 [1, 3]: 7.52 µM
Hill coefficient ([1]; fitted curve): 0.3
inhibition at 10 µM (GluN1b wt/ GluN2B Q110A; GluN1-1b/Q110A, compound concentration 10 μM, single oocytes): 78.4%
inhibition at 30 µM (GluN1b wt/ GluN2B Q110A; GluN1-1b/Q110A, compound concentration 30 μM, single oocytes): 84.2%
IC50 (GluN1b wt/ GluN2B Q110A; [3]): 0.519 µM
Hill coefficient (GluN1b wt/ GluN2B Q110A; fitted curve): 1.2
inhibition (%) (GluN1a wt/ GluN2B N192A; compound concentration 1 μM, 1 µM): 66.1572% and 79.6651% and 73.3591% and 75.5102% and 40.4665% and 73.3363% and 63.7681%
inhibition (%) (GluN1a wt/ GluN2B N192A; compound concentration 10 μM, 10 µM): 77.2198% and 89.4737% and 79.5367% and 82.6531% and 48.1744% and 82.1493% and 73.43%
inhibition (%) (GluN1a wt/ GluN2B N192A; compound concentration 30 μM, 30 µM): 83.1878% and 94.0191% and 84.556% and 89.7959% and 61.6633% and 86.6457% and 82.1256%
IC50 (GluN1a wt/ GluN2B N192A; [3]): 0.282 µM
Hill coefficient (GluN1a wt/ GluN2B N192A; fitted curve): 0.4
